Test system: phenyl-para-quinone induced writhing
Experiment: phenyl-para-quinone (PQW) writhing assay for analgesia
Format: in vivo
Conditions: Mus musculus, sc; 50% inhibition of writhing, s.c., mice; read-out: ED50 (subcutaneous dose at which 50% of the phenyl-para-quinone induced writhing is inhibited)
From the text: The compounds of the present invention are also useful as analgesic agents due to their ability to alleviate pain in mammals. […] Exptl. Biol. Med., 95, 729 (1957)]. Presented in Table 2 is the analgesic effect of some of the compounds of the invention expressed as either the subcutaneous dose at which 50% of the phenyl-para-quinone induced writhing is inhibited in the animals, i.e., the ED50 value, or as the % decrease in writhing at a give dose.

CCC(=O)O[C@](Cc1ccccc1)(c1ccccc1)[C@H](C)CN(C)C [Propoxyphene]
ED50: 3.9 mg/kg

Reference: US5030733A, “Hydroxy-, alkoxy- and benzyloxy-substituted phospholipids” (Hoechst-Roussel Pharmaceticals Incorporated, priority 1989, dated 1991)
